Patent EP0164635A2, “Imidazothiazolemethylene-acetohydrazide derivatives, preparation thereof and pharmaceutical composition having diuretic activity” (MEDIOLANUM FARMACEUTICI s.r.l., priority 1984, dated 1985)
Values joined by “and” are separate entries in the source; they are usually repeats but may differ in a detail not shown here. Equal entries are not always repeated.

Columns and labels:
rat [1] = test: Excreted urinary electrolytes after oral administration, with a second water load after 0-3 h; format: in vivo
Description: (§1) The compounds were administered by the oral route, under the same conditions as described in the previous test, but the animals, after the O-3 hours interval, were treated with further 25 ml/kg of distilled water, by intubation.

rats = test: Diuretic activity: urinary sodium excretion over 6 hours after oral administration; format: in vivo, rat; details: rat, sodium urinary excretion in 6 h vs controls (control = 100), read-out: Diuretic effect %; for response vs control in vivo at 10 mg/kg: dose 10 mg/kg oral; for response vs control in vivo at 20 mg/kg: dose 20 mg/kg oral
Description: The first series of tests was carried out to rats orally administered with distilled water (25 ml/kg) containing the product under test, previously suspended in Tween 80 (1% v/v with respect to water). Urina of the 6 hours following the treatment was collected in order to measure the sodium concentration, by means of atomic absorption. The ratio of the meq/100 g of body weight of the treated animals to the corresponding ratio of the meq/100 g of body weight of the control animals (treated with the sole vehicle) was calculated, in order to determine the dose of the test compound doubling or trebling or anyway increasing the sodium excretion.

in vivo = details: rat
rat [2] = test: Excreted urinary volumes after oral administration, with a second water load after 0-3 h; format: in vivo
Description: as §1

For `Cc1cn2c(C=NNC(=O)CN(C)C)c(-c3ccccc3)nc2s1` [Example 8, N,N-Dimethylaminoacetyl-[[2-methyl-6-phenyl-imida-zo[2,1-b]thiazole-5-yl]methylene]hydrazide], the “EXCRETED URINARY ELECTROLYTES WITH RESPECT TO BODY WEIGHT, K^+” value (rat [1]; 10 mg/kg, 0-3 h) was 0.66 mEq/kg, the “EXCRETED URINARY ELECTROLYTES WITH RESPECT TO BODY WEIGHT, Na^+” value (rat [1]; 10 mg/kg, 0-3 h) was 2.24 mEq/kg and the “EXCRETED URINARY ELECTROLYTES WITH RESPECT TO BODY WEIGHT, K^+” value (rat [1]; 10 mg/kg, 0-6 h) was 0.99 mEq/kg. For the same compound, the “EXCRETED URINARY ELECTROLYTES WITH RESPECT TO BODY WEIGHT, Na^+” value (rat [1]; 10 mg/kg, 0-6 h) was 2.39 mEq/kg, the “EXCRETED URINARY ELECTROLYTES WITH RESPECT TO BODY WEIGHT, K^+” value (rat [1]; 10 mg/kg, 3-6 h) was 0.33 mEq/kg and the “EXCRETED URINARY ELECTROLYTES WITH RESPECT TO BODY WEIGHT, Na^+” value (rat [1]; 10 mg/kg, 3-6 h) was 0.15 mEq/kg. The “EXCRETED URINARY ELECTROLYTES WITH RESPECT TO BODY WEIGHT, K^+” value (rat [1]; head prints 10 mg/kg, 0-3 h) was 0.48 mEq/kg, the “EXCRETED URINARY ELECTROLYTES WITH RESPECT TO BODY WEIGHT, Na^+” value (rat [1]; head prints 10 mg/kg, 0-3 h) was 1.32 mEq/kg and the “EXCRETED URINARY ELECTROLYTES WITH RESPECT TO BODY WEIGHT, K^+” value (rat [1]; head prints 10 mg/kg, 0-6 h) was 0.83 mEq/kg. The “EXCRETED URINARY ELECTROLYTES WITH RESPECT TO BODY WEIGHT, Na^+” value (rat [1]; head prints 10 mg/kg, 0-6 h) was 1.38 mEq/kg, the “EXCRETED URINARY ELECTROLYTES WITH RESPECT TO BODY WEIGHT, K^+” value (rat [1]; head prints 10 mg/kg, 3-6 h) was 0.35 mEq/kg and the “EXCRETED URINARY ELECTROLYTES WITH RESPECT TO BODY WEIGHT, Na^+” value (rat [1]; head prints 10 mg/kg, 3-6 h) was 0.056 mEq/kg. For the same compound, the response vs control in vivo at 1 mg/kg (rats; dose 1 mg/kg oral) was 300%, the LD50 (in vivo; ip) was greater than 3000 mg/kg and the LD50 (in vivo; po) was greater than 3000 mg/kg. For the same compound, the “EXCRETED URINARY VOLUMES WITH RESPECT TO BODY WEIGHT” value (rat [2]; 2.5 mg/kg, 0-3 h) was 26.5 mL/kg, the “EXCRETED URINARY VOLUMES WITH RESPECT TO BODY WEIGHT” value (rat [2]; 2.5 mg/kg, 0-6 h) was 43.2 mL/kg and the “EXCRETED URINARY VOLUMES WITH RESPECT TO BODY WEIGHT” value (rat [2]; 2.5 mg/kg, 3-6 h) was 16.7 mL/kg. The “EXCRETED URINARY VOLUMES WITH RESPECT TO BODY WEIGHT” value (rat [2]; 10 mg/kg, 0-3 h) was 34.5 mL/kg, the “EXCRETED URINARY VOLUMES WITH RESPECT TO BODY WEIGHT” value (rat [2]; 10 mg/kg, 0-6 h) was 50.9 mL/kg and the “EXCRETED URINARY VOLUMES WITH RESPECT TO BODY WEIGHT” value (rat [2]; 10 mg/kg, 3-6 h) was 16.4 mL/kg.

Compound `CN(C)CC(=O)NN=Cc1c(-c2ccccc2)nc2n1CCS2` [Example 9] has a response vs control in vivo at 10 mg/kg (rats) of 230%, an LD50 (in vivo; ip) greater than 1000 mg/kg and an LD50 (in vivo; po) greater than 3000 mg/kg.

Work on `Cc1nc2n(c1C=NNC(=O)CN(C)C)CCS2` [Example 10] yielded an LD50 (in vivo; ip) greater than 1000 mg/kg and an LD50 (in vivo; po) greater than 1000 mg/kg.

In the case of `CN(C)CC(=O)NN=Cc1c(-c2ccc(Cl)cc2)nc2n1CCS2` [Example 11], the response vs control in vivo at 20 mg/kg (rats) is reported as 230%, the LD50 (in vivo; ip) is reported as roughly 600 mg/kg and the LD50 (in vivo; po) is reported as roughly 800 mg/kg.

Work on `Cc1ccc(-c2nc3n(c2C=NNC(=O)CN(C)C)CCS3)cc1` [Example 12] yielded a response vs control in vivo at 20 mg/kg (rats) of 120%, an LD50 (in vivo; ip) of roughly 600 mg/kg and an LD50 (in vivo; po) of roughly 800 mg/kg.

`NCC(=O)NN=Cc1c(-c2ccccc2)nc2sccn12` [Example 14] gave a response vs control in vivo at 20 mg/kg (rats) of 130% and an LD50 (in vivo; po) greater than 1000 mg/kg.

For `NS(=O)(=O)c1cc(C(=O)O)c(NCc2ccco2)cc1Cl` [Furosemide, furosemide, reference compound], the “EXCRETED URINARY ELECTROLYTES WITH RESPECT TO BODY WEIGHT, K^+” value (rat [1]; 10 mg/kg, 0-3 h) was 0.87 mEq/kg and 1.02 mEq/kg, the “EXCRETED URINARY ELECTROLYTES WITH RESPECT TO BODY WEIGHT, Na^+” value (rat [1]; 10 mg/kg, 0-3 h) was 1.30 mEq/kg and 1.82 mEq/kg and the “EXCRETED URINARY ELECTROLYTES WITH RESPECT TO BODY WEIGHT, K^+” value (rat [1]; 10 mg/kg, 0-6 h) was 1.15 mEq/kg and 1.11 mEq/kg. For the same compound, the “EXCRETED URINARY ELECTROLYTES WITH RESPECT TO BODY WEIGHT, Na^+” value (rat [1]; 10 mg/kg, 0-6 h) was 1.38 mEq/kg and 1.85 mEq/kg, the “EXCRETED URINARY ELECTROLYTES WITH RESPECT TO BODY WEIGHT, K^+” value (rat [1]; 10 mg/kg, 3-6 h) was 0.24 mEq/kg and 0.13 mEq/kg and the response vs control in vivo at 10 mg/kg (rats) was 490%. For the same compound, the “EXCRETED URINARY VOLUMES WITH RESPECT TO BODY WEIGHT” value (rat [2]; 10 mg/kg, 0-3 h) was 36.5 mL/kg and 26.5 mL/kg, the “EXCRETED URINARY VOLUMES WITH RESPECT TO BODY WEIGHT” value (rat [2]; 10 mg/kg, 0-6 h) was 45.1 mL/kg and 47.2 mL/kg and the “EXCRETED URINARY VOLUMES WITH RESPECT TO BODY WEIGHT” value (rat [2]; 10 mg/kg, 3-6 h) was 10.7 mL/kg and 18.6 mL/kg.

Compound `NS(=O)(=O)c1cc2c(cc1C(F)(F)F)NCNS2(=O)=O` [Hydroflumethia-zide, hydroflumethiazide, reference compound] has a response vs control in vivo at 5 mg/kg (rats; dose 5 mg/kg oral) of 260% and an LD50 (in vivo; iv) of 750 mg/kg.

`CC(=O)S[C@@H]1CC2=CC(=O)CC[C@]2(C)[C@H]2CC[C@@]3(C)[C@@H](CC[C@@]34CCC(=O)O4)[C@H]12` [Spironolactone, spironolactone, reference compound] gave a response vs control in vivo at 20 mg/kg (rats) of 360%.
